Test results taken from patent US11059855B2, “Antimicrobial peptides and methods of making and using same” (priority 2017, dated 2021).

Experiments:
[1] = Circular dichroism secondary structure (Dichroweb), peptide only; type: physicochemical; settings: 20 °C
Method: (§1) Dichroweb software analyzes the secondary structure of LDKA peptides from circular dichroism spectroscope. The table presents the percentage of each helix and strand structure at different temperature. The data are analyzed using CONTIN-LL method and Reference Set 4 (Optimised for 190-240 nm).
(§2) Peptide solutions (peptide concentration is 50 μM) were titrated with POPC and POPG LUVs (50, 100, 250, 500, 1000 μM) and the corresponding changes CD spectra collected. Analysis of these spectra using CD tools and Dichroweb provides an ensemble average of the changes in secondary structure in the presence of POPC and POPG LUVs (dichroweb.cryst.bbk.ac.uk), which gives a direct measure of the binding free energies for each peptide.

[2] = Pore-size characterization by 3-kDa dextran release; type: biochemical; settings: ‡Large pore for PG only
Description: Eight LDKA peptides with different lipid selectivity and pore sizes were selected from the high-throughput screen and sequenced. […] The most common mutation is L to A, occurred 13 times and in 7 out of the 8 peptides, followed by A to L, which occurred 6 times in 5 peptides, L to D which occurred 3 times in 3 peptides, and L to P that occurred once. Lysine (K) is not favorable to be shown at the position 6, 8, 10, 12, and 13, which is the non-polar face of the helical structure. […] More specifically, the analogs only induce leakage from anionic POPG vesicles have 4-5 leucines, which is less than the analogs that can porate both POPC and POPG vesicles and have 6-7 leucines in their sequences.

[3] = ANTS/DPX leakage assay, POPC; type: biochemical; settings: P:L = 1:1000, pH 7 phosphate buffer
Method: (§3) 5 mM ANTS and 12.5 mM DPX were entrapped in 0.1 μm diameter extruded vesicles with lipids. Gel filtration chromatography of Sephadex G-100 (GE Healthcare Life Sciences Inc.) was used to remove external free ANTS/DPX from LUVs with entrapped contents. […] Leakage was measured after 3 hr incubation. 10% Triton was used as the positive control to measure the maximum leakage of the vesicle. Fluorescence emission spectra were recorded using excitation wavelength (Ex: 350 nm) and emission wavelength (Em: 510 nm) for ANTS/DPX using Synergy H1 Hybrid Multi-Mode Reader.
(§4) This detects and quantifies the release of a small fluorescent dye (ANTS/DPX; MW=˜400 Da) encapsulated in LUVs after addition of library peptides. Neutral POPC LUVs serve as a simple model for mammalian membranes, while charged POPG LUVs mimic bacterial membranes enriched in anionic lipids.

[4] = Circular dichroism secondary structure (Dichroweb), with POPG; type: physicochemical
Method: as §1, §2

[5] = test system: methicillin-resistant Staphylococcus aureus (MRSA); type: cell-based; settings: 75 μM maximum tested; NDA = not determinable
P. aeruginosa = test: Bacterial minimum inhibitory concentration (MIC), P. aeruginosa; type: cell-based, Pseudomonas aeruginosa; settings: 75 μM maximum tested; NDA = not determinable
Method: (§5) Escherichia colt strain ATCC 25922, Staphylococcus aureus strain ATCC 25923, and Pseudomonas aeruginosa strain ATCC PAO1 were used in this study. Overnight cultures were subcultured to log phase (OD600=0.3-0.6) after which cell counts were determined by measuring the OD600 (OD600 1.0=1.5×10^8 CFU/mL for S. aureus, 5×10^8 CFU/mL for E. colt, and 2.04×10^8 CFU/mL for P. aeruginosa). Bacteria in minimal media mere added to serially diluted peptides and incubated for 3 hr, followed by the addition of full growth media. After overnight incubation, the optical density of the wells was recorded on a plate reader to determine whether they were sterilized (OD<0.08) or were at stationary phase growth (OD600>0.5). Intermediate values, which were rare, were considered positive for growth. Average minimum sterilizing concentrations were calculated from the lowest peptide concentration that sterilized the bacteria in each serial dilution. The samples were done in sextuplet.

[6] = ANTS/DPX leakage assay, POPG; type: biochemical; settings: P:L = 1:1000, pH 7 phosphate buffer
Method: as §3, §4

[7] = 3-kDa dextran macromolecule release assay, POPG; type: biochemical; settings: P:L = 1:1000, pH 7 phosphate buffer
Escherichia coli biofilm = test: Activity against biofilm, E. coli; type: cell-based; settings: 67-150 μM peptide, 3 hr treatment
Method: Selected analogues were tested with each (13A). Escherichia coli biofilm, (13B). Staphylococcus aureus biofilm, and (13C) Pseudomonas aeruginosa biofilm.
However, most of the LDKA analogues fail to treat S. aureus and P. aeruginosa biofilms. Only K7H and 7F3 are capable to reduce S. aureus biofilms by ˜50% with 100 μM peptide concentration, and none of the analogues work against P. aeruginosa biofilms (FIGS. 13a-13c).

[8] = provided by the distributor, GenScript; cited from earlier work
S. aureus = test: Bacterial minimum inhibitory concentration (MIC), S. aureus; type: cell-based, Staphylococcus aureus; settings: 75 μM maximum tested; NDA = not determinable
Method: as §5

[9] = Membrane selectivity from high-throughput dye leakage screen; type: biochemical; settings: PC = POPC, PG = POPG
Description: as §4

[10] = Circular dichroism secondary structure (Dichroweb), with POPC; type: physicochemical
Method: as §1, §2

| Substance | Peptide-only, Strand [1] | Pore size [2] | ANTS/DPX release, POPC [3] | Peptide-POPG, Helix ([4]; 20 °C) | Peptide-POPG, Strand ([4]; 20 °C) | Peptide-POPG, Helix ([4]; 45 °C) | Peptide-POPG, Strand ([4]; 45 °C) | Peptide-POPG, Helix ([4]; 70 °C) | Peptide-POPG, Strand ([4]; 70 °C) | Peptide-POPG, Helix ([4]; 95 °C) | Peptide-POPG, Strand ([4]; 95 °C) | Minimum Inhibitory Concentration, MRSA [5] | Minimum Inhibitory Concentration, P. aeruginosa (P. aeruginosa) | ANTS/DPX release, POPG [6] | 3-kDa Dextran release, POPG [7] | Elimination of E. coli biofilm (Escherichia coli biofilm) | Solubility, DMSO [8] | Solubility, DPBS pH 7.1 [8] | Solubility, Ultrapure Water [8] | Minimum Inhibitory Concentration, S. aureus (S. aureus) | other results |
| --- | --- | --- | --- | --- | --- | --- | --- | --- | --- | --- | --- | --- | --- | --- | --- | --- | --- | --- | --- | --- | --- |
| H-GLADAAKLLLKAAGW-NH2 [Peptide 11D12] | 8% | Large | 8% | 96% | 0% | 92% | 0% | 90% | 0% | 77% | 1% | NDA | NDA | 101% | 58% | ~50% | 20 mg/mL | 10 mg/mL | 10 mg/mL | NDA | Membrane selectivity (POPC vs POPG vesicles) [9]: PG > PC; Peptide-POPC, Helix ([10]; 20 °C): 38%; Peptide-POPC, Strand ([10]; 20 °C): 12%; Peptide-POPC, Helix ([10]; 45 °C): 39%; Peptide-POPC, Strand ([10]; 45 °C): 10%; Peptide-POPC, Helix ([10]; 70 °C): 39%; Peptide-POPC, Strand ([10]; 70 °C): 9%; Peptide-POPC, Helix ([10]; 95 °C): 33%; Peptide-POPC, Strand ([10]; 95 °C): 12% |
| H-GLLDAAKLLAKAAGW-NH2 [Peptide 24F1] | 14% | Large | 15% | 91% | 0% | 88% | 1% | 77% | 1% | 66% | 2% | NDA | 66 µM | 100% | 69% | ~50% | 15 mg/mL | 5 mg/mL | 10 mg/mL | NDA | Membrane selectivity (POPC vs POPG vesicles) [9]: PG > PC; Peptide-POPC, Helix ([10]; 20 °C): 32%; Peptide-POPC, Strand ([10]; 20 °C): 16%; Peptide-POPC, Helix ([10]; 45 °C): 32%; Peptide-POPC, Strand ([10]; 45 °C): 16%; Peptide-POPC, Helix ([10]; 70 °C): 27%; Peptide-POPC, Strand ([10]; 70 °C): 17%; Peptide-POPC, Helix ([10]; 95 °C): 24%; Peptide-POPC, Strand ([10]; 95 °C): 22% |
| H-GLLDLPKALAKALGW-NH2 [Peptide 7G6] | 10% | Small | 48% | 86% | 2% | 87% | 2% | 82% | 3% | 75% | 3% | NDA | NDA | 105% | -1% | ~50% | 15 mg/mL | 15 mg/mL | 10 mg/mL | NDA | Membrane selectivity (POPC vs POPG vesicles) [9]: PG > PC; Peptide-POPC, Helix ([10]; 20 °C): 49%; Peptide-POPC, Strand ([10]; 20 °C): 10%; Peptide-POPC, Helix ([10]; 45 °C): 56%; Peptide-POPC, Strand ([10]; 45 °C): 6%; Peptide-POPC, Helix ([10]; 70 °C): 47%; Peptide-POPC, Strand ([10]; 70 °C): 10%; Peptide-POPC, Helix ([10]; 95 °C): 30%; Peptide-POPC, Strand ([10]; 95 °C): 20% |
